Test results as given in patent EP0802730B1, “PESTICIDAL COMPOUNDS” (BTG INTERNATIONAL LIMITED, priority 1995, dated 1996).
Values after ≈ are worked out from the molar mass of the structure shown.

These compounds were tested on Mustard beetles (PC) (Phaedon cochleariae Fab) (assay: not given). Settings: Tables 10, 13, 14; NA = lack of detectable activity.
Format: in vivo
Description: A one microlitre drop of an acetone solution of the test compound was applied ventrally to adult mustard beetles using a micro drop applicator. The treated insects were maintained for 48 hours after which time kill was assessed. Two replicates each of 20 to 25 mustard beetles were used at each dose level and 5 dose levels were treated comparably. LD50 values were calculated as for houseflies.

SMILES	PC LD50 (µg/insect)
CC(=O)OC1=C(CC2(C)CCCCC2)C(=O)c2ccccc2C1=O [Example 33, 2-acetoxy-3-((1'-methylcyclohexyl)-methyl)-naphthalene-1,4-dione]	2.8 µg/insect
CC(C)(C)CCCCC1=C(O)C(=O)c2ccccc2C1=O [Example 38, 2-(5,5-dimethylhexyl)-3-hydroxy-naphthalene-1,4-dione]	c8 µg/insect
CC(=O)OC1=C(C(C)(C)C)C(=O)c2ccccc2C1=O [Example 46]	c15 µg/insect
CC(=O)OC1=C(CCC(C)(C)C)C(=O)c2ccccc2C1=O [Example 47, 2-ethanoyloxy-3-(3,3-dimethylbutyl)-naphthalene-1,4-dione]	c1 µg/insect
CC(=O)OC1=C(CCCCCCC=CCC(C)(C)C)C(=O)c2ccccc2C1=O [Example 49, 2-ethanoyoxy-3-(10,10-dimethylundecan-7-enyl)-naphthalene-1,4-dione]	c10 µg/insect

These compounds were tested on Mites (TU) (Tetranychus urticae), susceptible strain (GSS) (assay: Mite immersion test, susceptible strain GSS). Settings: 72 h, Tables 10, 13, 14, susceptible strain, NA = lack of detectable activity, read-out: TU LC50 (ppm/insect).
Format: in vivo
Description: 25 adult female mites were immersed in 35 µl of a solution of the test compound in a 1:4 acetone-water mixture for 30 seconds. The treated insects were maintained at 21° ± 2°C and kill was assessed 72 hours after treatment. […] Three replicates of 25 mites each were used at each dose rate and 5 or 6 dose rates were used per compound under test. LC50 values were calculated in ppm of the solution of the test compound per insect. The test was carried out using a susceptible strain of mites (GSS) supplied by Schering, AG, Berlin.

SMILES	LC50 [µg/mL]
CC(=O)OC1=C(CC2(C)CCCCC2)C(=O)c2ccccc2C1=O [Example 33, 2-acetoxy-3-((1'-methylcyclohexyl)-methyl)-naphthalene-1,4-dione]	2.3 (≈ 7.05 µM)
CC(C)(C)CCCCC1=C(O)C(=O)c2ccccc2C1=O [Example 38, 2-(5,5-dimethylhexyl)-3-hydroxy-naphthalene-1,4-dione]	3.5 (≈ 12.2 µM)
CC(C)(C)CCCCCC1=C(O)C(=O)c2ccccc2C1=O [Example 39]	9.6 (≈ 32 µM)
CC(C)(C)CCCCCCC1=C(O)C(=O)c2ccccc2C1=O [Example 40]	5 (≈ 15.9 µM)
CC(C)(C)C=CCCCCC1=C(O)C(=O)c2ccccc2C1=O [Example 44, 2-(7,7-dimethyloct-5-enyl)-3-hydroxy-naphthalene-1,4-dione]	4.3 (≈ 13.8 µM)
CC(=O)OC1=C(C(C)(C)C)C(=O)c2ccccc2C1=O [Example 46]	~500 (≈ 1840 µM)
CC(=O)OC1=C(CCC(C)(C)C)C(=O)c2ccccc2C1=O [Example 47, 2-ethanoyloxy-3-(3,3-dimethylbutyl)-naphthalene-1,4-dione]	~20 (≈ 66.6 µM)
CC(=O)OC1=C(CCCCCCC=CCC(C)(C)C)C(=O)c2ccccc2C1=O [Example 49, 2-ethanoyoxy-3-(10,10-dimethylundecan-7-enyl)-naphthalene-1,4-dione]	2.3 (≈ 5.8 µM)

What follows are compounds tested on Houseflies (MD) (Musca domestica) (assay: not given). Settings: Tables 10, 13, 14; NA = lack of detectable activity.
Format: in vivo
Description: Female flies were treated on the thorax with a one microlitre drop of test compound dissolved in acetone. Two replicates of 15 flies were used at each dose rate and 6 dose rates were used per compound under test. After treatment, the flies were maintained at a temperature of 20° ± 1°C and kill was assessed 24 and 48 hours after treatment. LD50 values were calculated in micrograms of test compound per fly (see Sawicki et al., Bulletin of the World Health Organisation, 35, 893 (1966) and Sawicki et al., Entomologia and Exp. Appli 10, 253, (1967).

SMILES	MD LD50 (µg/insect)
CC(=O)OC1=C(CC2(C)CCCCC2)C(=O)c2ccccc2C1=O [Example 33, 2-acetoxy-3-((1'-methylcyclohexyl)-methyl)-naphthalene-1,4-dione]	5.7 µg/insect
CC(C)(C)CCCCC1=C(O)C(=O)c2ccccc2C1=O [Example 38, 2-(5,5-dimethylhexyl)-3-hydroxy-naphthalene-1,4-dione]	5.3 µg/insect
CC(C)(C)CCCCCC1=C(O)C(=O)c2ccccc2C1=O [Example 39]	c5 µg/insect
CC(C)(C)CCCCCCC1=C(O)C(=O)c2ccccc2C1=O [Example 40]	c5 µg/insect
CC(C)(C)C=CCCCCC1=C(O)C(=O)c2ccccc2C1=O [Example 44, 2-(7,7-dimethyloct-5-enyl)-3-hydroxy-naphthalene-1,4-dione]	c10 µg/insect
CC(=O)OC1=C(C(C)(C)C)C(=O)c2ccccc2C1=O [Example 46]	2.3 µg/insect
CC(=O)OC1=C(CCC(C)(C)C)C(=O)c2ccccc2C1=O [Example 47, 2-ethanoyloxy-3-(3,3-dimethylbutyl)-naphthalene-1,4-dione]	2.2 µg/insect
CC(=O)OC1=C(CCCCCCC=CCC(C)(C)C)C(=O)c2ccccc2C1=O [Example 49, 2-ethanoyoxy-3-(10,10-dimethylundecan-7-enyl)-naphthalene-1,4-dione]	c18 µg/insect

The compounds below were run on Myzus persicae, susceptible strain (US1L) (assay: Aphid dip test, susceptible strain). Settings: read-out: MP % kill 100 ppm.
Format: in vivo
Description: Activity against resistant (R) and susceptible (S) strains of aphid (Myzus persicae) was assessed using the following method.
Entrapment rings of fluon were painted halfway up the inside of 4 cm lengths of glass tubing (1.5 cm diameter), and squares of insect-proof gauze were attached to one end of each tube by elastic bands. Fifteen apterous adults were then gently transferred into the tubes using a sable-hair brush, and the tube sealed with a second gauze square.
Tubes containing aphids were dipped into insecticide solutions for 10 seconds, dried on blotting paper, and then inverted and tapped to cause treated aphids to fall to the unimmersed end of each tube. Handling mortality (usually zero or very slight) was scored after 1 hour, when aphids were transferred onto chinese cabbage leaf-discs (35 mm diameter) on an agar bed (25 mm in depth) in disposible plastic containers (30 mm high) and confined by applying a ring of fluon to the exposed lip of the container. Containers were store upright, without lids, in a constant environment facility maintained at 25°C under continuous room lighting. Mortality was assessed at 24, 48 and 72 hours. Two replicates of 15 aphids each were used at each dose rate and 5 or 6 dose rates were used per compound under test.
The test was carried out using a susceptible strain of aphids (US1L) collected in the field in East Anglia, UK and an extremely resistant strain of aphids (794Jz) (R3 esterase, sensitive AChE) collected from glasshouses in the UK.
The values given are % mortality corrected for control data. The control comprised the test solution without active ingredient.

SMILES	mortality at 100 ppm [%]
CC(=O)OC1=C(CC2(C)CCCCC2)C(=O)c2ccccc2C1=O [Example 33, 2-acetoxy-3-((1'-methylcyclohexyl)-methyl)-naphthalene-1,4-dione]	30
CC(C)(C)CCCCC1=C(O)C(=O)c2ccccc2C1=O [Example 38, 2-(5,5-dimethylhexyl)-3-hydroxy-naphthalene-1,4-dione]	~100
CC(C)(C)CCCCCC1=C(O)C(=O)c2ccccc2C1=O [Example 39]	~100
CC(C)(C)CCCCCCC1=C(O)C(=O)c2ccccc2C1=O [Example 40]	~100
CC(C)(C)C=CCCCCC1=C(O)C(=O)c2ccccc2C1=O [Example 44, 2-(7,7-dimethyloct-5-enyl)-3-hydroxy-naphthalene-1,4-dione]	~100
CC(=O)OC1=C(C(C)(C)C)C(=O)c2ccccc2C1=O [Example 46]	~60
CC(=O)OC1=C(CCC(C)(C)C)C(=O)c2ccccc2C1=O [Example 47, 2-ethanoyloxy-3-(3,3-dimethylbutyl)-naphthalene-1,4-dione]	~100
CC(=O)OC1=C(CCCCCCC=CCC(C)(C)C)C(=O)c2ccccc2C1=O [Example 49, 2-ethanoyoxy-3-(10,10-dimethylundecan-7-enyl)-naphthalene-1,4-dione]	~15

These compounds were tested on Aspergillus niger (assay: Fungitoxicity in vitro on potato dextrose agar). Settings: A. niger; 1 mg 1^-1; 4 days.
Format: cell-based

SMILES	% inhibition of growth in colony diameter in agar plates, Activity at 1 mg 1^-1 [%]
CCCN(CCOc1c(Cl)cc(Cl)cc1Cl)C(=O)n1ccnc1 [Prochloraz, prochloraz, reference compound]	97.8

Each compound was assayed on Whitefly (BT) (Bemisia tabaci), susceptible strain (SUD-S) (assay: Whitefly residual film vial test, susceptible strain SUD-S). Settings: 48 h, Tables 10, 13, 14, susceptible strain, NA = lack of detectable activity, read-out: BT LC50 (ppm/insect).
Format: in vivo
Description: Acetone solutions (0.100 ml) of the test compounds were placed in 10 ml glass vials and evaporated with rotation to deposit a film of the compound. Thirty adult whiteflies were placed inside the vial, then after 60 minutes, the treated insects were transferred onto untreated cotton leaf discs which were kept moist on a bed of agar gel. The temperature was maintained at 25°C and mortality assessed after 48 hours. Three replicates were used at each of 5 to 7 dose levels per compound.

SMILES	LC50 [µg/mL]
CC(=O)OC1=C(CC2(C)CCCCC2)C(=O)c2ccccc2C1=O [Example 33, 2-acetoxy-3-((1'-methylcyclohexyl)-methyl)-naphthalene-1,4-dione]	5.1 (≈ 15.6 µM)
CC(C)(C)CCCCC1=C(O)C(=O)c2ccccc2C1=O [Example 38, 2-(5,5-dimethylhexyl)-3-hydroxy-naphthalene-1,4-dione]	~60 (≈ 210 µM)
CC(C)(C)CCCCCC1=C(O)C(=O)c2ccccc2C1=O [Example 39]	21 (≈ 69.9 µM)
CC(C)(C)CCCCCCC1=C(O)C(=O)c2ccccc2C1=O [Example 40]	13 (≈ 41.3 µM)
CC(C)(C)C=CCCCCC1=C(O)C(=O)c2ccccc2C1=O [Example 44, 2-(7,7-dimethyloct-5-enyl)-3-hydroxy-naphthalene-1,4-dione]	~100 (≈ 320 µM)
CC(=O)OC1=C(CCC(C)(C)C)C(=O)c2ccccc2C1=O [Example 47, 2-ethanoyloxy-3-(3,3-dimethylbutyl)-naphthalene-1,4-dione]	2.1 (≈ 6.99 µM)
